Experimental data published in ChEMBL document CHEMBL3885881, “DrugMatrix”.

Species on record: Rattus norvegicus
Experiment: DrugMatrix - Regimen: Daily Repeat
Format: toxicity, organism-based, Sprague-Dawley
Set-up: regimen Daily Repeat, gender Male, age 6-8 weeks
Details: in vivo, po, route oral GAVAGE, vehicle .5 % CMC; for ABSOLUTE BASOPHIL / ABSOLUTE EOSINOPHIL / ABSOLUTE LYMPHOCYTE / ABSOLUTE MONOCYTE / ABSOLUTE SEGMENTED NEUTROPHIL / BASOPHIL / EOSINOPHIL / ERYTHROCYTE COUNT / HEMATOCRIT / HEMOGLOBIN / LEUKOCYTE COUNT / LYMPHOCYTE / MEAN CORPUSCULAR HEMOGLOBIN / MEAN CORPUSCULAR HEMOGLOBIN CONCENTRATION / MEAN CORPUSCULAR VOLUME / MONOCYTE / NEUTROPHIL / NUCLEATED RED BLOOD CELLS / PLATELET COUNT: tissue Blood; for ALANINE AMINOTRANSFERASE / ALBUMIN / ALKALINE PHOSPHATASE / ASPARTATE AMINOTRANSFERASE / BLOOD UREA NITROGEN / CARBON DIOXIDE / CHLORIDE / CHOLESTEROL / CREATINE PHOSPHOKINASE / CREATININE / GLUCOSE / LACTATE DEHYDROGENASE / LIPASE / PHOSPHORUS / SODIUM / TOTAL BILIRUBIN / TOTAL PROTEIN / URIC ACID: tissue Plasma
[1] = 54 mg/kg, 72 h, dose level Low, time 3 day
[2] = 54 mg/kg, 120 h, dose level Low, time 5 day
[3] = 1200 mg/kg, 72 h, dose level High, time 3 day
[4] = 1200 mg/kg, 120 h, dose level High, time 5 day

## NC(N)=Nc1nc(CSCCC(N)=NS(N)(=O)=O)cs1 [FAMOTIDINE]
[1]
  ABSOLUTE BASOPHIL: 0 CELLS/uL
  ABSOLUTE EOSINOPHIL: 169.67 CELLS/uL
  ABSOLUTE LYMPHOCYTE: 13320 CELLS/uL
  ABSOLUTE MONOCYTE: 113.67 CELLS/uL
  ABSOLUTE SEGMENTED NEUTROPHIL: 2530 CELLS/uL
  BASOPHIL: 0%
  EOSINOPHIL: 1%
  ERYTHROCYTE COUNT: 5.11 x10E6/uL
  HEMATOCRIT: 32.47%
  HEMOGLOBIN: 12.1 G/DL
  LEUKOCYTE COUNT: 16.13 x10E3/uL
  LYMPHOCYTE: 81.67%
  MEAN CORPUSCULAR HEMOGLOBIN: 23.73 pg
  MEAN CORPUSCULAR HEMOGLOBIN CONCENTRATION: 37.27 G/DL
  MEAN CORPUSCULAR VOLUME: 63.57 fL
  MONOCYTE: 0.67%
  NEUTROPHIL: 16.67%
  NUCLEATED RED BLOOD CELLS: 0 /100WBC
  PLATELET COUNT: 1110 x10E3/uL
  ALANINE AMINOTRANSFERASE: 57 u/L
  ALBUMIN: 4.17 G/DL
  ALKALINE PHOSPHATASE: 343.67 u/L
  ASPARTATE AMINOTRANSFERASE: 85 u/L
  BLOOD UREA NITROGEN: 17 mg/dL
  CARBON DIOXIDE: 27.33 mmol/L
  CHLORIDE: 106.67 MEQ/L
  CHOLESTEROL: 74.67 mg/dL
  CREATINE PHOSPHOKINASE: 218 u/L
  CREATININE: 0.19 mg/dL
  GLUCOSE: 162 mg/dL
  LACTATE DEHYDROGENASE: 62.33 u/L
  LIPASE: 9 u/L
  PHOSPHORUS: 14.6 mg/dL
  SODIUM: 148.03 MEQ/L
  TOTAL BILIRUBIN: 0.2 mg/dL
  TOTAL PROTEIN: 5.87 G/DL
  URIC ACID: 1.13 mg/dL
[2]
  ABSOLUTE BASOPHIL: 0 CELLS/uL
  ABSOLUTE EOSINOPHIL: 121 CELLS/uL
  ABSOLUTE LYMPHOCYTE: 12766.33 CELLS/uL
  ABSOLUTE MONOCYTE: 233 CELLS/uL
  ABSOLUTE SEGMENTED NEUTROPHIL: 713 CELLS/uL
  BASOPHIL: 0%
  EOSINOPHIL: 1%
  ERYTHROCYTE COUNT: 5.42 x10E6/uL
  HEMATOCRIT: 34.9%
  HEMOGLOBIN: 13.43 G/DL
  LEUKOCYTE COUNT: 13.83 x10E3/uL
  LYMPHOCYTE: 92%
  MEAN CORPUSCULAR HEMOGLOBIN: 24.87 pg
  MEAN CORPUSCULAR HEMOGLOBIN CONCENTRATION: 38.5 G/DL
  MEAN CORPUSCULAR VOLUME: 64.63 fL
  MONOCYTE: 1.67%
  NEUTROPHIL: 5.33%
  NUCLEATED RED BLOOD CELLS: 0 /100WBC
  PLATELET COUNT: 1325.67 x10E3/uL
  ALANINE AMINOTRANSFERASE: 55.33 u/L
  ALBUMIN: 4.33 G/DL
  ALKALINE PHOSPHATASE: 326.67 u/L
  ASPARTATE AMINOTRANSFERASE: 90.67 u/L
  BLOOD UREA NITROGEN: 18 mg/dL
  CARBON DIOXIDE: 24.33 mmol/L
  CHLORIDE: 106.33 MEQ/L
  CHOLESTEROL: 62.67 mg/dL
  CREATINE PHOSPHOKINASE: 662.67 u/L
  CREATININE: 0.19 mg/dL
  GLUCOSE: 182.67 mg/dL
  LACTATE DEHYDROGENASE: 190.67 u/L
  LIPASE: 8 u/L
  PHOSPHORUS: 14.57 mg/dL
  SODIUM: 146.63 MEQ/L
  TOTAL BILIRUBIN: 0.2 mg/dL
  TOTAL PROTEIN: 6.07 G/DL
  URIC ACID: 1.6 mg/dL
[3]
  ABSOLUTE BASOPHIL: 0 CELLS/uL
  ABSOLUTE EOSINOPHIL: 179 CELLS/uL
  ABSOLUTE LYMPHOCYTE: 9906 CELLS/uL
  ABSOLUTE MONOCYTE: 48.67 CELLS/uL
  ABSOLUTE SEGMENTED NEUTROPHIL: 1366.33 CELLS/uL
  BASOPHIL: 0%
  EOSINOPHIL: 1.67%
  ERYTHROCYTE COUNT: 5.88 x10E6/uL
  HEMATOCRIT: 36.73%
  HEMOGLOBIN: 13.97 G/DL
  LEUKOCYTE COUNT: 11.5 x10E3/uL
  LYMPHOCYTE: 85.33%
  MEAN CORPUSCULAR HEMOGLOBIN: 23.73 pg
  MEAN CORPUSCULAR HEMOGLOBIN CONCENTRATION: 38.03 G/DL
  MEAN CORPUSCULAR VOLUME: 62.5 fL
  MONOCYTE: 0.67%
  NEUTROPHIL: 12.33%
  NUCLEATED RED BLOOD CELLS: 0 /100WBC
  PLATELET COUNT: 1159.67 x10E3/uL
  ALANINE AMINOTRANSFERASE: 56 u/L
  ALBUMIN: 4.43 G/DL
  ALKALINE PHOSPHATASE: 396.33 u/L
  ASPARTATE AMINOTRANSFERASE: 89 u/L
  BLOOD UREA NITROGEN: 16.33 mg/dL
  CARBON DIOXIDE: 26.33 mmol/L
  CHLORIDE: 106.33 MEQ/L
  CHOLESTEROL: 85.33 mg/dL
  CREATINE PHOSPHOKINASE: 213.67 u/L
  CREATININE: 0.2 mg/dL
  GLUCOSE: 152.33 mg/dL
  LACTATE DEHYDROGENASE: 137.33 u/L
  LIPASE: 8.67 u/L
  PHOSPHORUS: 13.77 mg/dL
  SODIUM: 148.03 MEQ/L
  TOTAL BILIRUBIN: 0.27 mg/dL
  TOTAL PROTEIN: 6.4 G/DL
  URIC ACID: 2.37 mg/dL
[4]
  ABSOLUTE BASOPHIL: 0 CELLS/uL
  ABSOLUTE EOSINOPHIL: 254 CELLS/uL
  ABSOLUTE LYMPHOCYTE: 15699.67 CELLS/uL
  ABSOLUTE MONOCYTE: 74 CELLS/uL
  ABSOLUTE SEGMENTED NEUTROPHIL: 1405.67 CELLS/uL
  BASOPHIL: 0%
  EOSINOPHIL: 1.33%
  ERYTHROCYTE COUNT: 5.4 x10E6/uL
  HEMATOCRIT: 34.6%
  HEMOGLOBIN: 13.17 G/DL
  LEUKOCYTE COUNT: 17.43 x10E3/uL
  LYMPHOCYTE: 90%
  MEAN CORPUSCULAR HEMOGLOBIN: 24.43 pg
  MEAN CORPUSCULAR HEMOGLOBIN CONCENTRATION: 38.03 G/DL
  MEAN CORPUSCULAR VOLUME: 64.2 fL
  MONOCYTE: 0.33%
  NEUTROPHIL: 8.33%
  NUCLEATED RED BLOOD CELLS: 0 /100WBC
  PLATELET COUNT: 1387 x10E3/uL
  ALANINE AMINOTRANSFERASE: 59 u/L
  ALBUMIN: 4.4 G/DL
  ALKALINE PHOSPHATASE: 383.67 u/L
  ASPARTATE AMINOTRANSFERASE: 87.67 u/L
  BLOOD UREA NITROGEN: 18 mg/dL
  CARBON DIOXIDE: 25.67 mmol/L
  CHLORIDE: 103.67 MEQ/L
  CHOLESTEROL: 59.33 mg/dL
  CREATINE PHOSPHOKINASE: 259.33 u/L
  CREATININE: 0.27 mg/dL
  GLUCOSE: 182 mg/dL
  LACTATE DEHYDROGENASE: 250.33 u/L
  LIPASE: 8.67 u/L
  PHOSPHORUS: 14.07 mg/dL
  SODIUM: 145.8 MEQ/L
  TOTAL BILIRUBIN: 0.17 mg/dL
  TOTAL PROTEIN: 6.3 G/DL
  URIC ACID: 2.17 mg/dL
